Results published in PMC7163368 (British Journal of Clinical Pharmacology, 2020).

Experiments:
[1] = Safety and tolerability: adverse events, laboratory, ECG, physical examination; type: in vivo, human
DPP‐IV = settings: oral administration of 400 mg; cited from earlier work
[2] = 28‐day toxicity study in rats; cited from earlier work
[3] = s.c. single dose 120 mg (n = 5)

With `O=C(CN[C@@H]1CCNC1)N1CCC[C@H]1B(O)O` [dutogliptin] the “Swelling, related: subjects with at least 1 AE” value (“Swelling, related: subjects” for short) ([1]; s.c. multidose 60 mg (n = 5)) was 0, the “Systemic AEs, related: subjects with at least 1 AE” value ([1]; s.c. multidose 60 mg (n = 5)) was 1 (20%) and the “All AEs, related: subjects with at least 1 AE” value (from here on “All AEs, related: subjects”) ([1]; s.c. multidose 90 mg (n = 5)) was 5 (100%). For the same compound, the “Erythema, related: subjects with at least 1 AE” value (“Erythema, related: subjects” for short) ([1]; s.c. multidose 90 mg (n = 5)) was 5 (100%), the “Fatigue, related: subjects with at least 1 AE” value (from here on “Fatigue, related: subjects”) ([1]; s.c. multidose 90 mg (n = 5)) was 1 (20%) and the “Headache, related: subjects with at least 1 AE” value (“Headache, related: subjects” for short) ([1]; s.c. multidose 90 mg (n = 5)) was 1 (20%). For the same compound, the “Hematoma, related: subjects with at least 1 AE” value (from here on “Hematoma, related: subjects”) ([1]; s.c. multidose 90 mg (n = 5)) was 1 (20%), the “Induration, related: subjects with at least 1 AE” value (from here on “Induration, related: subjects”) ([1]; s.c. multidose 90 mg (n = 5)) was 4 (80%) and the “Local AEs, related: subjects with at least 1 AE” value ([1]; s.c. multidose 90 mg (n = 5)) was 5 (100%). For the same compound, the “Other local AEs, related: subjects with at least 1 AE” value (“Other local AEs, related: subjects” below) ([1]; s.c. multidose 90 mg (n = 5)) was 0, the “Other systemic AEs (dizziness and nausea), related: subjects with at least 1 AE” value ([1]; s.c. multidose 90 mg (n = 5)) was 2 (40%) and the “Pain with touching, related: subjects with at least 1 AE” value (“Pain with touching, related: subjects” below) ([1]; s.c. multidose 90 mg (n = 5)) was 2 (40%). The “Pain without touching, related: subjects with at least 1 AE” value (shortened to “Pain without touching, related: subjects”) ([1]; s.c. multidose 90 mg (n = 5)) was 1 (20%), the “Swelling, related: subjects” value ([1]; s.c. multidose 90 mg (n = 5)) was 1 (20%) and the “Systemic AEs, related: subjects with at least 1 AE” value ([1]; s.c. multidose 90 mg (n = 5)) was 4 (80%). The “All AEs, related: subjects” value ([1]; s.c. multidose 120 mg (n = 5)) was 5 (100%), the “Erythema, related: subjects” value ([1]; s.c. multidose 120 mg (n = 5)) was 5 (100%) and the “Fatigue, related: subjects” value ([1]; s.c. multidose 120 mg (n = 5)) was 0. The “Headache, related: subjects” value ([1]; s.c. multidose 120 mg (n = 5)) was 0, the “Hematoma, related: subjects” value ([1]; s.c. multidose 120 mg (n = 5)) was 0 and the “Induration, related: subjects” value ([1]; s.c. multidose 120 mg (n = 5)) was 3 (60%). The “Local AEs, related: subjects with at least 1 AE” value ([1]; s.c. multidose 120 mg (n = 5)) was 5 (100%), the “Other local AEs, related: subjects” value ([1]; s.c. multidose 120 mg (n = 5)) was 0 and the “Other systemic AEs, related: subjects with at least 1 AE” value (“Other systemic AEs, related: subjects” below) ([1]; s.c. multidose 120 mg (n = 5)) was 0. The “Pain with touching, related: subjects” value ([1]; s.c. multidose 120 mg (n = 5)) was 2 (40%), the “Pain without touching, related: subjects” value ([1]; s.c. multidose 120 mg (n = 5)) was 2 (40%) and the “Swelling, related: subjects” value ([1]; s.c. multidose 120 mg (n = 5)) was 0. For the same compound, the “Systemic AEs, related: subjects with at least 1 AE” value ([1]; s.c. multidose 120 mg (n = 5)) was 0, the “All AEs, related: subjects” value ([1]; s.c. single dose 30 mg (n = 5)) was 5 (100%) and the “Erythema, related: subjects” value ([1]; s.c. single dose 30 mg (n = 5)) was 5 (100%). The “Fatigue, related: subjects” value ([1]; s.c. single dose 30 mg (n = 5)) was 0, the “Headache, related: subjects” value ([1]; s.c. single dose 30 mg (n = 5)) was 0 and the “Hematoma, related: subjects” value ([1]; s.c. single dose 30 mg (n = 5)) was 0. The “Induration, related: subjects” value ([1]; s.c. single dose 30 mg (n = 5)) was 0, the “Local AEs, related: subjects with at least 1 AE” value ([1]; s.c. single dose 30 mg (n = 5)) was 5 (100%) and the “Other local AEs, related: subjects” value ([1]; s.c. single dose 30 mg (n = 5)) was 0. The “Other systemic AEs, related: subjects” value ([1]; s.c. single dose 30 mg (n = 5)) was 0, the “Pain with touching, related: subjects” value ([1]; s.c. single dose 30 mg (n = 5)) was 1 (20%) and the “Pain without touching, related: subjects” value ([1]; s.c. single dose 30 mg (n = 5)) was 0. The “Swelling, related: subjects” value ([1]; s.c. single dose 30 mg (n = 5)) was 0, the “Systemic AEs, related: subjects with at least 1 AE” value ([1]; s.c. single dose 30 mg (n = 5)) was 0 and the “All AEs, related: subjects” value ([1]; s.c. single dose 60 mg (n = 5)) was 5 (100%). The “Erythema, related: subjects” value ([1]; s.c. single dose 60 mg (n = 5)) was 5 (100%), the “Fatigue, related: subjects” value ([1]; s.c. single dose 60 mg (n = 5)) was 0 and the “Headache, related: subjects” value ([1]; s.c. single dose 60 mg (n = 5)) was 0. The “Hematoma, related: subjects” value ([1]; s.c. single dose 60 mg (n = 5)) was 0, the “Induration, related: subjects” value ([1]; s.c. single dose 60 mg (n = 5)) was 1 (20%) and the “Local AEs, related: subjects with at least 1 AE” value ([1]; s.c. single dose 60 mg (n = 5)) was 5 (100%). For the same compound, the “Other local AEs, related: subjects” value ([1]; s.c. single dose 60 mg (n = 5)) was 0, the “Other systemic AEs, related: subjects” value ([1]; s.c. single dose 60 mg (n = 5)) was 0 and the “Pain with touching, related: subjects” value ([1]; s.c. single dose 60 mg (n = 5)) was 0. For the same compound, the “Pain without touching, related: subjects” value ([1]; s.c. single dose 60 mg (n = 5)) was 0, the “Swelling, related: subjects” value ([1]; s.c. single dose 60 mg (n = 5)) was 0 and the “Systemic AEs, related: subjects with at least 1 AE” value ([1]; s.c. single dose 60 mg (n = 5)) was 0. The “All AEs, related: subjects” value ([1]; s.c. single dose 90 mg (n = 5)) was 5 (100%), the “Erythema, related: subjects” value ([1]; s.c. single dose 90 mg (n = 5)) was 5 (100%) and the “Fatigue, related: subjects” value ([1]; s.c. single dose 90 mg (n = 5)) was 0. The “Headache, related: subjects” value ([1]; s.c. single dose 90 mg (n = 5)) was 0, the “Hematoma, related: subjects” value ([1]; s.c. single dose 90 mg (n = 5)) was 1 (20%) and the “Induration, related: subjects” value ([1]; s.c. single dose 90 mg (n = 5)) was 0. For the same compound, the “Local AEs, related: subjects with at least 1 AE” value ([1]; s.c. single dose 90 mg (n = 5)) was 5 (100%), the “Other local AEs, related: subjects” value ([1]; s.c. single dose 90 mg (n = 5)) was 0 and the “Other systemic AEs, related: subjects” value ([1]; s.c. single dose 90 mg (n = 5)) was 0. For the same compound, the “Pain with touching, related: subjects” value ([1]; s.c. single dose 90 mg (n = 5)) was 0, the “Pain without touching, related: subjects” value ([1]; s.c. single dose 90 mg (n = 5)) was 0 and the “Swelling, related: subjects” value ([1]; s.c. single dose 90 mg (n = 5)) was 1 (20%). For the same compound, the “Systemic AEs, related: subjects with at least 1 AE” value ([1]; s.c. single dose 90 mg (n = 5)) was 0, the “All AEs, related: subjects” value [1, 3] was 5 (100%) and the “Erythema, related: subjects” value [1, 3] was 4 (80%). The “Fatigue, related: subjects” value [1, 3] was 0, the “Headache, related: subjects” value [1, 3] was 1 (20%) and the “Hematoma, related: subjects” value [1, 3] was 1 (20%). The “Induration, related: subjects” value [1, 3] was 2 (40%), the “Local AEs, related: subjects with at least 1 AE” value [1, 3] was 4 (80%) and the “Other local AEs (burning sensation at the injection site), related: subjects with at least 1 AE” value [1, 3] was 1 (20%). For the same compound, the “Other systemic AEs, related: subjects” value [1, 3] was 0, the “Pain with touching, related: subjects” value [1, 3] was 0 and the “Pain without touching, related: subjects” value [1, 3] was 0. The “Swelling, related: subjects” value [1, 3] was 0, the “Systemic AEs, related: subjects with at least 1 AE” value [1, 3] was 1 (20%) and the “Inhibition of DPP‐IV activity” value (DPP‐IV) was “approximately 85%”. For the same compound, the “No observed adverse effects level” value [2] was 30 mg/kg.
